Literature values as cited in patent US20030158162A1, “Methods of treating ophthalmic disorders with epoxy-steroidal aldosterone receptor antagonists” (priority 2001, published 2003).

Conditions: Klin Monatsbl Augenheilkd 176(3):445-6 (1980)

**Q.** For `CC(=O)S[C@@H]1CC2=CC(=O)CC[C@]2(C)[C@H]2CC[C@@]3(C)[C@@H](CC[C@@]34CCC(=O)O4)[C@H]12` [Spironolactone], which “effect on IOP in glaucoma patients” value is on record?
**A.** lower IOP
